Assay results: PMC3499368, “Evolution of Minimal Specificity and Promiscuity in Steroid Hormone Receptors” (PLoS Genetics, 2012)
Read-outs that look alike come from different tables or passages of the source.

Assays:
Type in all cases: cell-based
[1] = system: AncSR1_Alt2; test: luciferase reporter assay, alternative reconstruction AncSR1_Alt2; conditions: Alt2, fold activation at 10^-6 M, Fig. S5C
Source text: (§1) To determine the robustness of functional inferences to statistical uncertainty in the reconstruction of AncSR1 and AncSR2, we used two approaches. AncSR1 had too many ambiguously reconstructed sites to examine each such residue individually, so we computationally sampled from the posterior probability distribution of reconstructed amino acid states to generate a cloud of possible ancestral sequences, each harboring a large number of alternate states. Specifically, we generated 1,000,000 possible ancestral sequences by sampling from the posterior probability distribution of states at each site. […] We synthesized these five radically alternative ancestral reconstructions de novo and repeated the functional assays.
(§2) A) Distribution of posterior probabilities of 1 million protein sequences assembled by sampling amino acid states at each site from the posterior probability distribution for AncSR1 LBD. The ML reconstruction (AncSR1-ML) and the five alternative sequences with the highest posterior probability (Alt1-Alt5) in the 1 million samples are […]
(§3) The column height and error bars indicate the mean and SEM of three independent experiments, respectively. […]

[2] = system: AncSR1-LBD; test: luciferase reporter gene assay, Gal4-DBD fusion of AncSR1-LBD in CHO-K1 cells, activation; conditions: for EC50: AncSR1, representative dose activation curves (Fig. S3) and Table S5 section b
Source text: (§4) To experimentally test these hypotheses, we synthesized cDNAs for the AncSR1 and AncSR2 LBD protein sequences, expressed them as Gal4-DBD fusion constructs, and characterized their sensitivity to hormones using luciferase reporter gene assays.

[3] = system: AncSR1_Alt5; test: luciferase reporter assay, alternative reconstruction AncSR1_Alt5; conditions: Alt5, fold activation at 10^-6 M, Fig. S5C
Source text: as §1, §2, §3

[4] = system: AncSR2-LBD; test: luciferase reporter gene assay, Gal4-DBD fusion of AncSR2-LBD in CHO-K1 cells, activation; conditions: for Ratio H1/H2 of EC50, preference for 21-OH group vs. H group / Ratio H2/H1 of EC50, preference for 21-OH group vs. H group: AncSR2, Table S5 section f, pairs H1/H2: 1/6, 2/7; for Ratio H1/H2 of EC50, preference for 21-OH group vs. H group / Ratio H2/H1 of EC50, preference for 21-OH group vs. H group / Ratio H1/H2 of EC50, preference for 11-OH vs. H group / Ratio H2/H1 of EC50, preference for 11-OH vs. H group / Ratio H1/H2 of EC50, preference for 17-acetyl vs. 17-hydroxy group / Ratio H2/H1 of EC50, preference for 17-acetyl vs. 17-hydroxy group / Ratio H1/H2 of EC50, preference for 3-hydroxy vs. 3-keto group / Ratio H2/H1 of EC50, preference for 3-hydroxy vs. 3-keto group / Ratio H1/H2 of EC50, preference for 19-H vs. 19-methyl group / Ratio H2/H1 of EC50, preference for 19-H vs. 19-methyl group: listed as given under Hormone 1; for Ratio H1/H2 of EC50, preference for 11-OH vs. H group / Ratio H2/H1 of EC50, preference for 11-OH vs. H group: AncSR2, Table S5 section g, pairs H1/H2: 1/3, 2/4; for EC50: AncSR2, representative dose activation curves (Fig. S4) and Table S5 sections c-i; for Ratio H1/H2 of EC50, preference for 17-acetyl vs. 17-hydroxy group / Ratio H2/H1 of EC50, preference for 17-acetyl vs. 17-hydroxy group: AncSR2, Table S5 section d, pairs H1/H2: 13/6, 17/8, 15/9, 16/10, 19/23; for Ratio H1/H2 of EC50, preference for 3-hydroxy vs. 3-keto group / Ratio H2/H1 of EC50, preference for 3-hydroxy vs. 3-keto group: AncSR2, Table S5 section e, pairs H1/H2: 18/17, 9/6, 15/13; for Ratio H1/H2 of EC50, preference for 19-H vs. 19-methyl group / Ratio H2/H1 of EC50, preference for 19-H vs. 19-methyl group: AncSR2, Table S5 section i, pairs H1/H2: 8/6, 17/13, 18/15
Source text: as §4, with “assays. […] It was unresponsive to a broad array of androgens, progestagens, and corticosteroids, as well as cholesterol (Figure 2A, Figure S3).” for “assays.”
For AncSR2, we identified all plausible alternate reconstructions (those with posterior probability >0.20 excluding biochemically similar K/R, D/E, S/T, and I/L differences) and introduced each alternate state individually into the AncSR2 background using the Quikchange Mutagenesis kit (Stratagene), verified clones by sequencing, and repeated the activation assays with each version of AncSR2 (Figure S6). The ML AncSR2 sequence reconstructed on the ML tree had high baseline activation in the absence of ligand; this phenotype is almost certainly an artifact, because constitutive baseline activity is not present in any of AncSR2's extant descendants; it is well-established that some amino acid replacements can cause nuclear receptors to become constitutive by marginally stabilizing the active conformation in the absence of hormone. […] The “constitutive” Leu79 state is weakly supported on the ML tree (PP = 0.59), and has no support (PP = 0.00) on the phylogeny that is most parsimonious in terms of gene duplications and losses; in contrast, the “non-constitutive” state Met79 has PP = 0.41 on the ML tree and PP = 1.00 on the rearranged gene duplication/loss tree (Figure S12, Table S8). The AncSR2 sequence used for all experiments reported in the text therefore contains state Met79. The other alternate reconstructions were then reintroduced into this AncSR2 sequence: none qualitatively changed the receptor's sensitivity to the various classes of steroid hormones, except for A171V, which conferred constitutive activity (Figure S6).

[5] = system: AncSR1_Alt4; test: luciferase reporter assay, alternative reconstruction AncSR1_Alt4; conditions: Alt4, fold activation at 10^-6 M, Fig. S5C
Source text: as §1, §2, §3

[6] = system: AncSR1_Alt1; test: luciferase reporter assay, alternative reconstruction AncSR1_Alt1; conditions: Alt1, fold activation at 10^-6 M, Fig. S5C
Source text: as §1, §2, §3

[7] = system: AncSR1_Alt3; test: luciferase reporter assay, alternative reconstruction AncSR1_Alt3; conditions: Alt3, fold activation at 10^-6 M, Fig. S5C
Source text: as §1, §2, §3

[8] = AncSR1, Table S5 section b, pairs H1/H2: 18/19, 22/20, 8/23, listed as given under Hormone 1

In the case of 11-deoxycorticosterone, the “activation (in words)” value [1] is reported as “none are activated”, the “activation (in words)” value ([2]; AncSR1-ML, fold activation at 10^-6 M, Fig. S5C) is reported as “none are activated” and the “activation (in words)” value [3] is reported as “none are activated”. The EC80 ([4]; AncSR2, 11-deoxycorticosterone concentration used in inhibition assay) was 1.7 nM, the “Ratio H1/H2 of EC50, preference for 21-OH group vs. H group” value [4] was 0.08 and the “Ratio H2/H1 of EC50, preference for 21-OH group vs. H group” value [4] was 13.10. The “Ratio H1/H2 of EC50, preference for 11-OH vs. H group” value [4] was 1.35, the “Ratio H2/H1 of EC50, preference for 11-OH vs. H group” value [4] was 0.74 and the EC50 ([4]; read-out: EC50) was 0.42 nM. The “activation (in words)” value [5] was “none are activated”, the “activation (in words)” value [6] was “none are activated” and the “activation (in words)” value [7] was “none are activated”.

In the case of `C[C@]12CC[C@H]3[C@@H](CCC4=C[C@@H](O)CC[C@@]43C)[C@@H]1CC[C@@H]2O` [4-androstenediol], the “Ratio H1/H2 of EC50, preference for 17-acetyl vs. 17-hydroxy group” value [4] is reported as 119.09, the “Ratio H2/H1 of EC50, preference for 17-acetyl vs. 17-hydroxy group” value [4] is reported as 0.01 and the “Ratio H1/H2 of EC50, preference for 3-hydroxy vs. 3-keto group” value [4] is reported as 2.26. The “Ratio H2/H1 of EC50, preference for 3-hydroxy vs. 3-keto group” value [4] was 0.44 and the EC50 [4] was 262 nM.

`C[C@]12CCC(=O)C=C1CC[C@@H]1[C@@H]2CC[C@]2(C)C(=O)CC[C@@H]12` [4-androstenedione] was tested, and the “Ratio H1/H2 of EC50, preference for aromatized A-ring” value [2, 8] was 144.93, the “Ratio H2/H1 of EC50, preference for aromatized A-ring” value [2, 8] was 0.01 and the EC50 [2] was greater than 10000 nM. It also gave an EC50 [4] of 411 nM.

In the case of `CC(=O)C1CCC2C3CCC4=CC(O)CCC4(C)C3CCC12C` (stereo not drawn) [4-pregnenolone], the “Ratio H1/H2 of EC50, preference for 3-hydroxy vs. 3-keto group” value [4] is reported as 0.40, the “Ratio H2/H1 of EC50, preference for 3-hydroxy vs. 3-keto group” value [4] is reported as 2.50 and the EC50 [4] is reported as 2.2 nM.

With `C[C@]12CC[C@H]3[C@@H](CC=C4C[C@@H](O)CC[C@@]43C)[C@@H]1CC[C@@H]2O` [5-androstenediol] the “Ratio H1/H2 of EC50, preference for 17-acetyl vs. 17-hydroxy group” value [4] was 21.84, the “Ratio H2/H1 of EC50, preference for 17-acetyl vs. 17-hydroxy group” value [4] was 0.05 and the EC50 [4] was 83 nM.

For `CC(=O)C1CCC2C3CC=C4CC(O)CCC4(C)C3CCC12C` (stereo not drawn) [5-pregnenolone], the EC50 ([4]; read-out: EC50) was 3.8 nM.

For `C[C@]12CCC(=O)C=C1CC[C@@H]1[C@@H]2CC[C@@]2(C)[C@H]1CC[C@]2(O)C(=O)CO` [11-deoxycortisol], the “Ratio H1/H2 of EC50, preference for 21-OH group vs. H group” value [4] was 0.08, the “Ratio H2/H1 of EC50, preference for 21-OH group vs. H group” value [4] was 12.67 and the “Ratio H1/H2 of EC50, preference for 11-OH vs. H group” value [4] was 0.15. The “Ratio H2/H1 of EC50, preference for 11-OH vs. H group” value [4] was 6.53 and the EC50 ([4]; read-out: EC50) was 1.5 nM.

In the case of `CC(=O)[C@@]1(O)CC[C@H]2[C@@H]3CCC4=CC(=O)CC[C@]4(C)[C@H]3CC[C@@]21C` [17α-hydroxyprogesterone], the EC50 ([4]; read-out: EC50) is reported as 19 nM.

For `CC(=O)C1CCC2C3CCC4=CC(=O)CCC4C3CCC12C` (stereo not drawn) [19-norprogesterone], the “Ratio H2/H1 of EC50, preference for aromatized A-ring” value [2, 8] was 0.02, the EC50 [2] was greater than 10000 nM and the “Ratio H1/H2 of EC50, preference for 19-H vs. 19-methyl group” value [4] was 0.29. The “Ratio H2/H1 of EC50, preference for 19-H vs. 19-methyl group” value [4] was 3.44 and the EC50 [4] was 1.6 nM.

`CC12CCC3C4CCC(=O)C=C4CCC3C1CCC2O` (stereo not drawn) [19-nortestosterone] was tested, and the “Ratio H1/H2 of EC50, preference for 17-acetyl vs. 17-hydroxy group” value [4] was 43.13, the “Ratio H2/H1 of EC50, preference for 17-acetyl vs. 17-hydroxy group” value [4] was 0.02 and the “Ratio H1/H2 of EC50, preference for 19-H vs. 19-methyl group” value [4] was 0.59. The “Ratio H2/H1 of EC50, preference for 19-H vs. 19-methyl group” value [4] was 1.68 and the EC50 [4] was 69 nM.

`C[C@H](O)[C@H]1CC[C@H]2[C@@H]3CCC4=CC(=O)CC[C@]4(C)[C@H]3CC[C@]12C` [20α hydroxyprogesterone] was tested, and the EC50 ([4]; read-out: EC50) was 19 nM.
